Source: ChEMBL document CHEMBL4400538, “Discovery of Carboline Derivatives as Potent Antifungal Agents for the Treatment of Cryptococcal Meningitis” (J Med Chem, 2019)
≈ marks a conversion by molar mass, not a printed value.

Columns and labels:
[1] = test system: Cryptococcus neoformans; test: Antifungal activity against Cryptococcus neoformans H99 after 48 hrs by growth curve assay; format: functional; conditions: var grubii H99 
[2] = Half life in ICR mouse liver microsomes at 1 uM measured up to 45 mins in presence of NADPH by LC-MS/MS analysis; format: ADME, Microsome

SMILES	MIC80 [1]	half-life at 1 µM [2]
c1ccc2c(c1)c1c(n2CCCN2CCCCC2)CNCC1	64 µg/mL (≈ 215 µM)	–
Fc1ccccc1NCCCn1c2c(c3ccccc31)CCNC2.O=C(O)C(F)(F)F	16 µg/mL	–
Brc1ccc(OCCCn2c3c(c4ccccc42)CCNC3)cc1.O=C(O)C(F)(F)F	4 µg/mL	–
Clc1ccccc1NCCCn1c2c(c3ccccc31)CCNC2.O=C(O)C(F)(F)F	8 µg/mL	–
COc1ccc(N2CCN(CCCn3c4c(c5ccccc53)CCNC4)CC2)cc1	64 µg/mL (≈ 158 µM)	–
Clc1ccc(OCCCn2c3c(c4c(Cl)cccc42)CCNC3)cc1.O=C(O)C(F)(F)F	4 µg/mL	–
Cc1cccc2c3c(n(CCCOc4ccc(Cl)cc4)c12)CNCC3.O=C(O)C(F)(F)F	2 µg/mL	–
Brc1ccccc1OCCCn1c2c(c3ccccc31)CCNC2.O=C(O)C(F)(F)F	8 µg/mL	–
COc1ccc(OCCCn2c3c(c4ccccc42)CCNC3)cc1.O=C(O)C(F)(F)F	16 µg/mL	–
COc1cccc2c3c(n(CCCOc4ccc(Cl)cc4)c12)CNCC3.O=C(O)C(F)(F)F	4 µg/mL	–
COc1ccccc1N1CCN(CCCn2c3c(c4ccccc42)CCNC3)CC1	64 µg/mL (≈ 158 µM)	–
Fc1ccccc1OCCCn1c2c(c3ccccc31)CCNC2.O=C(O)C(F)(F)F	16 µg/mL	–
c1ccc2c(c1)c1c(n2CCN2CCOCC2)CNCC1	64 µg/mL (≈ 224 µM)	–
c1ccc(C2CCN(CCCn3c4c(c5ccccc53)CCNC4)CC2)cc1	32 µg/mL (≈ 85.7 µM)	–
Fc1cccc2c1c1c(n2CCCOc2ccc(Cl)cc2)CNCC1.O=C(O)C(F)(F)F	4 µg/mL	–
Brc1cccc(NCCCn2c3c(c4ccccc42)CCNC3)c1.O=C(O)C(F)(F)F	8 µg/mL	–
COc1ccccc1OCCCn1c2c(c3ccccc31)CCNC2.O=C(O)C(F)(F)F	32 µg/mL	–
Fc1ccc2c3c(n(CCCOc4ccc(Cl)cc4)c2c1)CNCC3.O=C(O)C(F)(F)F	2 µg/mL	–
CCOc1ccccc1NCCCn1c2c(c3ccccc31)CCNC2.O=C(O)C(F)(F)F	32 µg/mL	–
COc1ccc2c3c(n(CCCOc4ccc(Cl)cc4)c2c1)CNCC3.O=C(O)C(F)(F)F	2 µg/mL	–
COc1ccc(NCCCn2c3c(c4ccccc42)CCNC3)cc1.O=C(O)C(F)(F)F	32 µg/mL	–
COc1cccc(OCCCn2c3c(c4ccccc42)CCNC3)c1.O=C(O)C(F)(F)F	16 µg/mL	–
CCOc1ccc(NCCCn2c3c(c4ccccc42)CCNC3)cc1.O=C(O)C(F)(F)F	32 µg/mL	–
Clc1ccc(OCCCn2c3c(c4ccccc42)CCNC3)cc1.O=C(O)C(F)(F)F	4 µg/mL	–
C1=CCN(CCCn2c3c(c4ccccc42)CCNC3)C1	64 µg/mL (≈ 227 µM)	–
O=C(O)C(F)(F)F.O=[N+]([O-])c1ccc(OCCCn2c3c(c4ccccc42)CCNC3)cc1	16 µg/mL	–
Cc1ncc2n1-c1ccc(Cl)cc1C(c1ccccc1F)=NC2 [MIDAZOLAM]	–	2 min
Clc1cccc(OCCCn2c3c(c4ccccc42)CCNC3)c1.O=C(O)C(F)(F)F	4 µg/mL	–
Brc1ccc(NCCCn2c3c(c4ccccc42)CCNC3)cc1.O=C(O)C(F)(F)F	8 µg/mL	–
Clc1ccc(OCCCn2c3c(c4cccc(Cl)c42)CCNC3)cc1.O=C(O)C(F)(F)F	2 µg/mL	–
